# Assay results from US12377104B1, “Methods for treating a fatty liver disease” (Madrigal Pharmaceuticals, Inc., priority 2024, dated 2025).
# Tested on: adults with biopsy-confirmed NASH
# Assay: MAESTRO-NASH: liver enzymes, imaging and biomarkers (MRI-PDFF, CAP, VCTE, MRE, liver and spleen volume, ELF)
# Format: in vivo, human
# Conditions: 80 mg
# [1] = wk 48, baseline ALT ≥30 U per liter
# [2] = week 52, baseline ELF score ≥9.8
# [3] = week 52, baseline PIIINP ≥9 ng/mL
# [4] = week 52, baseline TIMP-I ≥240 ng/ml
# [5] = week 52, baseline hyaluronic acid ≥50 ng/ml
structure (smiles),measurement,setting,value
"CC(C)c1cc(Oc2c(Cl)cc(-n3nc(C#N)c(=O)[nH]c3=O)cc2Cl)n[nH]c1=O [Resmetirom, 2-(3,5-dichloro-4-((5-isopropyl-6-oxo-1,6-dihydropyridazin-3-yl)oxy)phenyl)-3,5-dioxo-2,3,4,5-tetrahydro-1,2,4-triazine-6-carbonitrile]","Alanine aminotransferase level, difference from placebo",wk 48,−19.7 percentage points
same,"Aspartate aminotransferase level, difference from placebo",wk 48,−19.3 percentage points
same,"γ-Glutamyltransferase level, difference from placebo",wk 48,−28.3 percentage points
same,"Alanine aminotransferase level, least-squares mean percent change from baseline",[1],−26.6 ± 3.7%
same,"Aspartate aminotransferase level, least-squares mean percent change from baseline",[1],−22.1 ± 3.9%
same,"γ-Glutamyltransferase level, least-squares mean percent change from baseline",[1],−25.0 ± 5.5%
same,"MRI-PDFF, difference from placebo",wk 52,−26.7 percentage points
same,"MRI-PDFF, least-squares mean percent change from baseline",wk 52,−35.4 ± 2.8%
same,"MRE ≥19% increase from BL, no. of patients","F1B, responder analysis",0
same,"MRE ≥19% reduction from BL, % of patients","F1B, responder analysis",(20.0) %
same,"MRE ≥19% reduction from BL, no. of patients","F1B, responder analysis",1
same,"VCTE/LSM improving >25%, % of patients","F1B, responder analysis",(50.0) %
same,"VCTE/LSM improving >25%, no. of patients","F1B, responder analysis",6
same,"VCTE/LSM improving ≥30%, % of patients","F1B, responder analysis",(41.7) %
same,"VCTE/LSM improving ≥30%, no. of patients","F1B, responder analysis",5
same,"VCTE/LSM worsening ≥25%, % of patients","F1B, responder analysis",(8.3) %
same,"VCTE/LSM worsening ≥25%, no. of patients","F1B, responder analysis",1
same,"VCTE/LSM worsening ≥30%, % of patients","F1B, responder analysis",(8.3) %
same,"VCTE/LSM worsening ≥30%, no. of patients","F1B, responder analysis",1
same,"FibroScan VCTE/LSM, LS mean CFB","F1B, week 52",−3.7 kPa
same,"FibroScan VCTE/LSM, LS mean CFB difference from PBO","F1B, week 52",−3.1 kPa
same,"MRE, LS mean % CFB","F1B, week 52",−5.7%
same,"MRE, LS mean % CFB difference from PBO","F1B, week 52",−13.2%
same,"MRE ≥19% increase from BL, no. of patients","F2, responder analysis",0
same,"MRE ≥19% reduction from BL, % of patients","F2, responder analysis",(35.0) %
same,"MRE ≥19% reduction from BL, no. of patients","F2, responder analysis",7
same,"VCTE/LSM improving ≥25%, % of patients","F2, responder analysis",(44.0) %
same,"VCTE/LSM improving ≥25%, no. of patients","F2, responder analysis",37
same,"VCTE/LSM improving ≥30%, % of patients","F2, responder analysis",(33.3) %
same,"VCTE/LSM improving ≥30%, no. of patients","F2, responder analysis",28
same,"VCTE/LSM worsening ≥25%, % of patients","F2, responder analysis",(11.9) %
same,"VCTE/LSM worsening ≥25%, no. of patients","F2, responder analysis",10
same,"VCTE/LSM worsening ≥30%, % of patients","F2, responder analysis",(8.3) %
same,"VCTE/LSM worsening ≥30%, no. of patients","F2, responder analysis",7
same,"FibroScan VCTE/LSM, LS mean CFB","F2, week 52",−2.3 kPa
same,"FibroScan VCTE/LSM, LS mean CFB difference from PBO","F2, week 52",1.1 kPa
same,"MRE, LS mean % CFB","F2, week 52",−1.9%
same,"MRE, LS mean % CFB difference from PBO","F2, week 52",4.0%
same,"MRE ≥19% increase from BL, % of patients","F3, responder analysis",(3.6) %
same,"MRE ≥19% increase from BL, no. of patients","F3, responder analysis",3
same,"MRE ≥19% reduction from BL, % of patients","F3, responder analysis",(26.2) %
same,"MRE ≥19% reduction from BL, no. of patients","F3, responder analysis",22
same,"VCTE/LSM improving ≥25%, % of patients","F3, responder analysis",(41.1) %
same,"VCTE/LSM improving ≥25%, no. of patients","F3, responder analysis",67
same,"VCTE/LSM improving ≥30%, % of patients","F3, responder analysis",(34.4) %
same,"VCTE/LSM improving ≥30%, no. of patients","F3, responder analysis",56
same,"VCTE/LSM worsening ≥25%, % of patients","F3, responder analysis",(14.7) %
same,"VCTE/LSM worsening ≥25%, no. of patients","F3, responder analysis",24
same,"VCTE/LSM worsening ≥30%, % of patients","F3, responder analysis",(12.9) %
same,"VCTE/LSM worsening ≥30%, no. of patients","F3, responder analysis",21
same,"FibroScan VCTE/LSM, LS mean CFB","F3, week 52",2.0 kPa
same,"FibroScan VCTE/LSM, LS mean CFB difference from PBO","F3, week 52",−0.86 kPa
same,"MRE, LS mean % CFB","F3, week 52",−8.9%
same,"MRE, LS mean % CFB difference from PBO","F3, week 52",−8.6%
same,"Liver volume, LS mean % CFB",week 16,−18.8%
same,"Liver volume, LS mean % CFB difference from PBO",week 16,18.5%
same,"MRI-PDFF % fat fraction, LS mean % CFB",week 16,−37.8%
same,"MRI-PDFF % fat fraction, LS mean % CFB difference from PBO",week 16,−31.4%
same,"Spleen volume, LS mean % CFB",week 16,−2.4%
same,"Spleen volume, LS mean % CFB difference from PBO",week 16,−3.9%
same,"ALT, LS mean % CFB",week 48,−26.6%
same,"ALT, LS mean % CFB difference from PBO",week 48,−19.7%
same,"ALT, LS mean CFB",week 48,−20.4 U/L
same,"AST, LS mean % CFB",week 48,−22.1%
same,"AST, LS mean % CFB difference from PBO",week 48,−19.3%
same,"AST, LS mean CFB",week 48,−13.9 U/L
same,"GGT, LS mean % CFB",week 48,−25.0%
same,"GGT, LS mean % CFB difference from PBO",week 48,−28.3%
same,"GGT, LS mean CFB",week 48,−31.3 U/L
same,"Adiponectin, LS mean CFB",week 52,0.86 µg/mL
same,"Adiponectin, LS mean CFB difference from PBO",week 52,0.97 µg/mL
same,"CK-18, LS mean CFB",week 52,−278.2 U/L
same,"CK-18, LS mean CFB difference from PBO",week 52,−134.3 U/L
same,"FibroScan CAP, LS mean CFB",week 52,−39.6 dB/m
same,"FibroScan CAP, LS mean CFB difference from PBO",week 52,−25.2 dB/m
same,"Liver volume, LS mean % CFB",week 52,−21.6%
same,"Liver volume, LS mean % CFB difference from PBO",week 52,−20.5%
same,"MRI-PDFF % fat fraction, LS mean % CFB",week 52,−35.4%
same,"MRI-PDFF % fat fraction, LS mean % CFB difference from PBO",week 52,−26.7%
same,"Spleen volume, LS mean % CFB",week 52,−5.9%
same,"Spleen volume, LS mean % CFB difference from PBO",week 52,−9.0%
same,"Enhanced liver fibrosis score, LS mean CFB",[2],-0.34
same,"Enhanced liver fibrosis score, LS mean CFB difference from PBO",[2],−0.22
same,"PIIINP, LS mean % CFB",[3],−10.7%
same,"PIIINP, LS mean % CFB difference from PBO",[3],−9.7%
same,"PIIINP, LS mean CFB",[3],2.0 ng/mL
same,"PIIINP, LS mean CFB difference from PBO",[3],-1.4 ng/mL
same,"TIMP-I, LS mean % CFB",[4],−9.3%
same,"TIMP-I, LS mean % CFB difference from PBO",[4],−5.7%
same,"TIMP-I, LS mean CFB",[4],-31.0 ng/mL
same,"TIMP-I, LS mean CFB difference from PBO",[4],-17.7 ng/mL
same,"Hyaluronic acid, LS mean % CFB",[5],17.2%
same,"Hyaluronic acid, LS mean % CFB difference from PBO",[5],−7.6%
same,"Hyaluronic acid, LS mean CFB",[5],1.1 µg/L
